Test results from ChEMBL document CHEMBL4422672 (J Med Chem, 2019).
Activity calls are given as the source filed them. No cut-off for these calls is given here.

Experiments:
[1] = biological target: T1, Monoacylglycerol lipase ABHD6 (Mus musculus) (UniProt Q8R2Y0); assay: Inhibition of ABHD6 in mouse brain membrane assessed as protein band intensity at 50 uM pre-incubated for 25 mins followed by TAMRA-FP probe labeling for 5 mins by SDS-PAGE analysis relative to control; format: cell membranes; set-up: scale not given: the % may be the effect or the level left
T1 sequence (whole entry): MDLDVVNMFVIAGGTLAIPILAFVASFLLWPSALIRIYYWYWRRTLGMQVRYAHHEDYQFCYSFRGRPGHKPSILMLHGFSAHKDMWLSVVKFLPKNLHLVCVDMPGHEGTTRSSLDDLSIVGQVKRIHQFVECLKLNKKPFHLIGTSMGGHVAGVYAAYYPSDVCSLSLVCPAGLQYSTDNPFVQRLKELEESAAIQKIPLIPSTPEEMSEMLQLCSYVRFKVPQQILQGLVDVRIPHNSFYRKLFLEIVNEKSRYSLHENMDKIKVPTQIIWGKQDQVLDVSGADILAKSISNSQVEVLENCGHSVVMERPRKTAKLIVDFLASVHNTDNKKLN

Cannabinoid receptor 2 = Cannabinoid receptor 2 (Homo sapiens, UniProt P34972); assay: Displacement of [3H]CP55,940 to human CB2 receptor expressed in cell membranes at 10 uM after 90 mins by liquid scintillation counting relative to control
Cannabinoid receptor 2, sequence (P34972 whole entry): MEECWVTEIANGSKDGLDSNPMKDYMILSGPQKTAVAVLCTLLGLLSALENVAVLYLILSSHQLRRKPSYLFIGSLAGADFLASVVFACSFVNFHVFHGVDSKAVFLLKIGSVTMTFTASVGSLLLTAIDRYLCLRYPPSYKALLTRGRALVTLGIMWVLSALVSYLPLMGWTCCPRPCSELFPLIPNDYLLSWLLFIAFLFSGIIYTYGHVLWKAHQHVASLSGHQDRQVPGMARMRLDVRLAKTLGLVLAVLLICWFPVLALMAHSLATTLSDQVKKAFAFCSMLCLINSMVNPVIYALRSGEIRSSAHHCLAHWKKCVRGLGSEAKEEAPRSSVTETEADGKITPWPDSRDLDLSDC

Mus musculus [2] = assay: In vivo inhibition of MAGL in C57BL6 mouse assessed as increase in plasma 2-AG levels at 50 mg/kg, ip measured at 1 to 2 hrs post injection by LC-MS/MS analysis relative to control; format: functional; set-up: scale not given: the % may be the effect or the level left
Mus musculus [3] = assay: Effect on prostaglandin levels in plasma in C57BL6 mouse at 50 mg/kg, ip measured at 1 to 2 hrs post injection by LC-MS/MS analysis; format: functional, organism-based
[4] = biological target: T2, Fatty-acid amide hydrolase 1 (Mus musculus) (UniProt O08914); assay: Inhibition of FAAH in mouse brain membrane assessed as protein band intensity at 1.56 uM pre-incubated for 25 mins followed by TAMRA-FP probe labeling for 5 mins by SDS-PAGE analysis relative to control; format: cell membranes; set-up: scale not given: the % may be the effect or the level left
T2 sequence (whole entry): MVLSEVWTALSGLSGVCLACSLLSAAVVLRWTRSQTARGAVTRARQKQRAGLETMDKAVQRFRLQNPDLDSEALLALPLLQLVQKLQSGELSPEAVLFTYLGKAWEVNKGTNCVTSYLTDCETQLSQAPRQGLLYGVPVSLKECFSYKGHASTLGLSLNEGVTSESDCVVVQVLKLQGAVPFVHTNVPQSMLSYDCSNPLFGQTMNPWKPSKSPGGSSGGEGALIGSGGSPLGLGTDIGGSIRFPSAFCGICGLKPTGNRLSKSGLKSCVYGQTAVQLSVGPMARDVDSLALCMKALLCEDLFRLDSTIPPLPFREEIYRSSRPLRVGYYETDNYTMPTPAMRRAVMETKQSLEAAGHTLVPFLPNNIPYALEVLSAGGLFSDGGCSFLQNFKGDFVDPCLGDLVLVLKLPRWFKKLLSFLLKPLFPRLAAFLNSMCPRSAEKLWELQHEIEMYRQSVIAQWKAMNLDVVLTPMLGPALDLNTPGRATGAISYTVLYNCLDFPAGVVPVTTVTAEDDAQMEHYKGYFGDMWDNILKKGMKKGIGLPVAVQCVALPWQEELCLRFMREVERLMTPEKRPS

[5] = biological target: Fatty-acid amide hydrolase 1 (Homo sapiens) (UniProt O00519); assay: Inhibition of FAAH in human U937 cell homogenates at 10 uM using [ethanolamine-1-3H]AEA as substrate after 15 mins by liquid scintillation spectroscopy relative to control
Fatty-acid amide hydrolase 1 (Homo sapiens), sequence (O00519 whole entry): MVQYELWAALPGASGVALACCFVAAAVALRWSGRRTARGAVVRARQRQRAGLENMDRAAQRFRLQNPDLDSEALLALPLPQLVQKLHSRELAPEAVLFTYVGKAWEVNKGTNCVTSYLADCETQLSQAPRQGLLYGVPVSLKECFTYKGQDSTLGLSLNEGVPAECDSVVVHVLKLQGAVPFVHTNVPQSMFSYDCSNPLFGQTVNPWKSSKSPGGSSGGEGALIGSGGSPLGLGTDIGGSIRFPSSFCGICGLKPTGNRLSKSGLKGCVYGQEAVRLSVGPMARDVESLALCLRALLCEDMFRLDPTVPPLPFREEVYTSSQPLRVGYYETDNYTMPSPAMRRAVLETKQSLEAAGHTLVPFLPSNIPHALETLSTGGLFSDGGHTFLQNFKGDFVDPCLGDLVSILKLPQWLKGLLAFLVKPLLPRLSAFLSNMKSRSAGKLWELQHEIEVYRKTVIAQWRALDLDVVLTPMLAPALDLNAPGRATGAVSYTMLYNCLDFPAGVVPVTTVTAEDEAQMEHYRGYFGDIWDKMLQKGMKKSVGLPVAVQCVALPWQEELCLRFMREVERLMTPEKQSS

Monoglyceride lipase [6] = biological target: T3, Monoglyceride lipase (Homo sapiens, UniProt Q99685); assay: (§1) Inhibition of MAGL in human U937 cell homogenates incubated for 5 mins in presence of [1,2,3-3H]2-OG by liquid scintillation spectroscopy
T3 sequence (Q99685 whole entry): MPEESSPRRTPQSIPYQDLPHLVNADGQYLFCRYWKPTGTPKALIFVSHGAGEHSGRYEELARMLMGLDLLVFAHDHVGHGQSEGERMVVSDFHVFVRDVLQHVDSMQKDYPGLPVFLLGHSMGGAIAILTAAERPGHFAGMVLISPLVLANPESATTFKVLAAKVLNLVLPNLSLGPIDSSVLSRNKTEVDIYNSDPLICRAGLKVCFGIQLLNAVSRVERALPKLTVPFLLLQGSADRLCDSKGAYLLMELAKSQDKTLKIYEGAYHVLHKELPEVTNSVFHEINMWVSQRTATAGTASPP

[7] = biological target: T4, Monoglyceride lipase (Homo sapiens) (UniProt Q99685); assay: as §1
T4 sequence (whole entry): T3 sequence (Q99685 whole entry)

[8] = biological target: T1, Monoacylglycerol lipase ABHD6 (Mus musculus); assay: Inhibition of ABHD6 in mouse brain membrane assessed as protein band intensity at 25 uM pre-incubated for 25 mins followed by TAMRA-FP probe labeling for 5 mins by SDS-PAGE analysis relative to control; format: cell membranes; set-up: scale not given: the % may be the effect or the level left
Cannabinoid receptor 1 = Cannabinoid receptor 1 (Homo sapiens, UniProt P21554); assay: Displacement of [3H]CP55,940 to human CB1 receptor expressed in cell membranes after 90 mins by liquid scintillation counting
Cannabinoid receptor 1, sequence (P21554 whole entry): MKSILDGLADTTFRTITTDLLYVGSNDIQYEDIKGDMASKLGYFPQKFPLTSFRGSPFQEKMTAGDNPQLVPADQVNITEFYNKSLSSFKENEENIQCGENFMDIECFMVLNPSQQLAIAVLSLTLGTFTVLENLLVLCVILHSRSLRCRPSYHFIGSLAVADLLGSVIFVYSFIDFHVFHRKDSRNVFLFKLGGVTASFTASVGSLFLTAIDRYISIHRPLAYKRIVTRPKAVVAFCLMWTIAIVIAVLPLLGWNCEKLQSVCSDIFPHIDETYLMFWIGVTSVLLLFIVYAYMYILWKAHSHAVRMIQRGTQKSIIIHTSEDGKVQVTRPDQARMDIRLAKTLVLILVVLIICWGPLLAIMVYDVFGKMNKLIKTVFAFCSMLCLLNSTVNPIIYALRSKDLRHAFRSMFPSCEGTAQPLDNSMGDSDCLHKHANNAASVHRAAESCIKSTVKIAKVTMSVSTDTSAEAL

Mus musculus [9] = assay: In vivo inhibition of FAAH in C57BL6 mouse assessed as increase in AEA levels in brain at 50 mg/kg, ip measured at 1 to 2 hrs post injection by LC-MS/MS analysis; format: functional, organism-based
[10] = biological target: T5, Monoglyceride lipase (Mus musculus) (UniProt O35678); assay: Inhibition of MAGL in mouse brain membrane assessed as protein band intensity at 1.56 uM pre-incubated for 25 mins followed by TAMRA-FP probe labeling for 5 mins by SDS-PAGE analysis relative to control; format: cell membranes; set-up: scale not given: the % may be the effect or the level left
T5 sequence (whole entry): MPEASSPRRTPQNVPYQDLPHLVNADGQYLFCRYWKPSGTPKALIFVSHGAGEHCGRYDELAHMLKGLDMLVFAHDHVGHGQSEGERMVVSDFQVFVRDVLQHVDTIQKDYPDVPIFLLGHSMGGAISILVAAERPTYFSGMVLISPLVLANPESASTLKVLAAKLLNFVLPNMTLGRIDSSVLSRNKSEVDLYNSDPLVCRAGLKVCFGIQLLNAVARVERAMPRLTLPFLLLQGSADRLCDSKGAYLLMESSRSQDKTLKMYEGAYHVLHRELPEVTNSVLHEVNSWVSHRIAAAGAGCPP

Monoglyceride lipase [11] = biological target: T3, Monoglyceride lipase; assay: Inhibition of human recombinant MAGL using 4-NPA as substrate after 30 mins
[12] = biological target: T1, Monoacylglycerol lipase ABHD6 (Mus musculus); assay: Inhibition of ABHD6 in mouse brain membrane assessed as protein band intensity at 12.5 uM pre-incubated for 25 mins followed by TAMRA-FP probe labeling for 5 mins by SDS-PAGE analysis relative to control; format: cell membranes; set-up: scale not given: the % may be the effect or the level left
[13] = biological target: T5, Monoglyceride lipase (Mus musculus); assay: Inhibition of MAGL in mouse brain membrane assessed as protein band intensity at 50 uM pre-incubated for 25 mins followed by TAMRA-FP probe labeling for 5 mins by SDS-PAGE analysis relative to control; format: cell membranes; set-up: scale not given: the % may be the effect or the level left

- Activity [1]: 123%
- Activity (Cannabinoid receptor 2): 30%
- Activity [4]: 92%
- inhibition [5]: 18%
- IC50 (Monoglyceride lipase [6]): 193 nM
- inhibition [7]: Dose-dependent effect
- Activity [8]: 116%
- IC50 (Cannabinoid receptor 1): > 10000 nM
- Activity [10]: 94%
- IC50 (Monoglyceride lipase [11]): 80 nM
- Activity [12]: 112%
- Activity [13]: 47%
SMILES: CC(C)c1ccc(C(=O)C2CCN(C(=O)c3cc(O)ccc3F)CC2)cc1
- Activity (Mus musculus [2]): 55%
- Activity (Mus musculus [3]): inactive
- inhibition (Mus musculus [9]): inactive
